The text below walks through data of PubChem BioAssay (NCI).

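Interpolation was linear, between the two tested concentrations surrounding the appropriate level; five concentrations were tested over 48 hours in 96-well plates. GI50 marks 50% less growth. TGI marks complete inhibition of growth.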

What all share (assay): growth of human tumour cells (NCI), 48 h
The test system of test [1] is SF-539 CNS.
For test [2], the system named is IGROV1 ovarian.
The subject of test [3] is SW-620 colon.
Test [4] deals with SNB-19 CNS.
Test [5] relates to HCT-15 colon.
The test system of test [6] is UACC-257 melanoma.
Test [7] deals with MCF7 breast.
Test [8] has as its system NCI-H522 lung.
For test [9], the system named is A498 renal.
Test [10] relates to MDA-MB-435.

`Cc1ccc(CNc2ccc3nc(CCC4CCCCC4)[nH]c3c2)cc1`: the GI50 in test [1] is 2.42 µM; in test [2], 2.28 µM; in test [3] it was 1.99 µM; in [4], 3.54 µM; in test [5] it was 1.94 µM; in test [6], 2.37 µM. Also, the GI50 in test [7] is 2.14 µM; in test [8] it was 1.99 µM; in [9] it was 1.44 µM; in test [10] it was 2.09 µM. For the same molecule, the TGI in test [1] was 6.06 µM; in test [2], 10.3 µM; in test [3], 4.64 µM; in test [4] it was > 100 µM; in [5], 6.82 µM; in test [6], 6.44 µM. For the same molecule, the TGI in test [7] amounted to 6.24 µM; in test [8], 5.13 µM; in test [9], 4.32 µM; in [10], 4.85 µM.
On to `Oc1ccccc1-c1nn(CNc2ccc(Cl)cc2)c(=S)o1`, for which the GI50 in test [1] is 23.8 µM; in [2], > 100 µM; in [3] it was 22.4 µM; in [4], > 100 µM; in test [5] it was 20 µM; in test [6], 20.6 µM. In addition, the GI50 in test [7] was 4.17 µM; in test [8], > 100 µM; in test [9] it was > 100 µM; in test [10] it was 3.21 µM. The TGI in [1] is > 100 µM; in [2], > 100 µM; in [3] it was > 100 µM; in test [4], > 100 µM; in test [5] it was 45.4 µM; in test [6], 47.9 µM. Further, the TGI in [7], in test [8], in test [9] and in [10] was > 100 µM throughout.
For the molecule `COc1ccc2c(c1)CCC1C2CC[C@@]2(C)C1CC[C@@H]2NC(=O)Cc1ccc(O)c(O)c1` (stereo not given in full), the GI50 is 4.84 µM in [1]; 2.29 µM in [2]; 6.41 µM in test [3]; 13.3 µM in [4]; 3.74 µM in test [5]; 17 µM in test [6]. In addition, the GI50 in test [7] was 11.2 µM; in [8] it was 1.9 µM; in test [9], 18.8 µM; in [10], 4.63 µM. Further, the TGI turned out to be 17.3 µM in test [1]; 7.68 µM in [2]; 25 µM in test [3]; 33.4 µM in [4]; 16.7 µM in [5]; 30.8 µM in test [6]. Further, the TGI was 32.1 µM in [7], 4.25 µM in test [8], 33.7 µM in [9] and 17.2 µM in test [10].
As for `CCN1CCN(CCNc2nccc(-c3c(-c4ccc(F)c(O)c4)nc4occn34)n2)S1(=O)=O`, the GI50 in [1] was > 100 µM; in [2], 4.06 µM; in test [3], 8.42 µM; in test [4], > 100 µM; in test [5], 3.93 µM; in test [6], 5.15 µM. In addition, the GI50 is 3.82 µM in test [7], 2.93 µM in test [8], 5.15 µM in test [9] and 3.03 µM in test [10]. The TGI in [1], in test [2], in test [3], in test [4], in test [5] and in test [6] was > 100 µM throughout. Also, the TGI in test [7], in test [8], in test [9] and in test [10] was > 100 µM in each case.
With `CCCc1nn(C)c2c(=O)[nH]c(-c3cc(S(=O)(=O)N4CCN(C)CC4)ccc3OCC)nc12`, the GI50 in test [1] is > 100 µM; in test [2], 91.4 µM; in test [3] it was > 100 µM; in test [4], > 100 µM; in test [5], > 100 µM; in test [6] it was > 100 µM. For the same molecule, the GI50 in test [7] is > 100 µM; in test [8], > 100 µM; in test [9], 25.6 µM; in test [10], > 100 µM. The TGI in test [1], in [2], in test [3], in [4], in test [5] and in test [6] was > 100 µM throughout. The TGI in test [7], in test [8], in [9] and in test [10] was > 100 µM each time.
`Cc1cc2c(F)c(Oc3ncnc(Nc4ccc(N5C[C@@H](C)N[C@@H](C)C5)cc4)c3C#N)cc(F)c2[nH]1`: the GI50 in test [1] was 1.53 µM; in [2], 2.48 µM; in test [3] it was 1.83 µM; in [4], 5.07 µM; in [5] it was 1.73 µM; in test [6] it was 2.06 µM. For the same molecule, the GI50 is 1.7 µM in test [7], 2.14 µM in test [8], 0.0134 µM in test [9] and 2.03 µM in [10]. In addition, the TGI came out at 2.94 µM in [1]; 6.91 µM in test [2]; 4.1 µM in [3]; 18.8 µM in test [4]; 4.24 µM in test [5]; 4.04 µM in test [6]. Moreover, the TGI in test [7] was 4.29 µM; in [8], 4.54 µM; in test [9], 0.384 µM; in test [10], 4.61 µM.
`CC1=CCC2CC1C(C(=O)c1c[nH]c3ccccc13)=NC2(C)C` (stereo not given): the TGI is > 100 µM in [1]; > 100 µM in test [2]; > 100 µM in test [3]; > 100 µM in test [4]; > 100 µM in [5]; 93.4 µM in [6]. The TGI in [7], in test [8], in test [9] and in [10] was > 100 µM in each case.
As to `CC1=C([Te]c2ccccc2)C(=O)c2ccccc2C1=O`, the GI50 in test [1] was 0.146 µM; in test [2], 0.5 µM; in test [3] it was 0.475 µM; in test [4], 0.551 µM; in [5], 0.346 µM; in test [6] it was 2.23 µM. Moreover, the GI50 in [7] was 0.249 µM; in test [8] it was 0.909 µM; in [9], 0.239 µM; in test [10] it was 1.8 µM. Also, the TGI is 1.03 µM in test [1]; 1.82 µM in test [2]; 1.74 µM in test [3]; 2.56 µM in test [4]; 1.56 µM in test [5]; 5.92 µM in test [6]. Also, the TGI in test [7] stood at 0.943 µM; in test [8], 4.24 µM; in test [9] it was 0.977 µM; in test [10], 4.02 µM.
